Measured values from patent US12636323B2, “Use of Clostridium ghonii combined with tumor angiogenesis inhibitor” (priority 2021, dated 2026).

Tests used:
CT26 tumor cells = assay: Antitumor effect of Clostridium ghonii spores combined with different doses of apatinib (AITAN) in CT26 mouse model; assay type: in vivo, BALB/c mice; conditions: for Tumor inhibition rate (row head: Anti-bacterial rate): calculated from tumor weight; for Tumor weight: n=7; for Cure rate: tumors completely eliminated at end of experiment
Procedure: BALB/c mice were subcutaneously inoculated with CT26 tumor cells to establish a subcutaneous tumor model for colon cancer. 0.2 mL of a cell suspension with a concentration of 7.5×10^6 cells/mL (acceptable range: 6.75×10^6 cells/mL-8.25×10^6 cells/mL) was extracted with a 1-mL disposable sterile syringe and slowly subcutaneously injected into axillae of right forelimbs of mice (pre-sterilized with 75% alcohol). After injection, needle eyes were gently pressed with dry cotton balls.
Tumor measurement: a maximum long diameter (L) and a maximum transverse diameter (W) of a tumor (including a thickness of a mouse skin) were measured with a vernier caliper, and a tumor volume was calculated according to a formula of
Tumor weight: a tumor tissue was dissected out and weighed and tumor weight was recorded.
Tumor inhibition rate (IRTW%)=(average tumor weight of control group-average tumor weight of experimental group)/average tumor weight of control group×100%.
(§1) According to a random principle, the conforming mice (a tumor volume of 0.31-0.41 cm^3) were divided into 8 groups by lottery: control group, spore group, high-dose apatinib (AITAN) group, medium-dose apatinib (AITAN) group, low-dose apatinib (AITAN) group, Clostridium ghonii combined low-dose apatinib (AITAN) group, Clostridium ghonii combined medium-dose apatinib (AITAN) group, and Clostridium ghonii combined high-dose apatinib (AITAN) group.
(§2) Control group: the mice were intratumorally administrated with a same volume of a 0.9% sodium chloride injection; • spore group: the mice were intratumorally administrated at a dose of 1×10^7 cfu/tumor/time twice; • High-dose apatinib (AITAN) group: the mice were gavaged at a dose of 180 mg/kg/d once every day for a total of 7 times; • Medium-dose apatinib (AITAN) group: the mice were gavaged at a dose of 120 mg/kg/d once every day for a total of 7 times; • Low-dose apatinib (AITAN) group: the mice were gavaged at a dose of 60 mg/kg/d once every day for a total of 7 times; and
(§3) Clostridium ghonii combined apatinib (AITAN) groups: mice were first intratumorally administrated with apatinib (AITAN) once every day for 3 days and then Clostridium ghonii spores at a dose of 1×10^7 cfu/tumor/time once every other day for a total of two times. The dose of the apatinib (AITAN) in the combined high, medium and low-dose apatinib (AITAN) groups was the same as that in the high, medium and low-dose apatinib (AITAN) groups.

[1] = Death and net body weight of tumor-bearing mice in Example 3; assay type: in vivo, BALB/c mice; conditions: mean ± SD, n=7
Procedure: Clinical observation: during an administration period, animal behaviors, death or near-death, etc. were observed using the naked eyes once every morning and afternoon.
Body weight: during the administration period, body weight was measured on the day of the tumor measurement from the day of treatment.
as §1, §2, §3

[2] = medium-dose apatinib 120 mg/kg/d

N#CC1(c2ccc(NC(=O)c3cccnc3NCc3ccncc3)cc2)CCCC1 [apatinib (AITAN), apatinib]
Tumor volume (CT26 tumor cells; D-1, Table 2 (low-dose apatinib)): 1049.42 ± 166.37 mm^3
Tumor volume (CT26 tumor cells; D-1, upper part of Table 2, low-dose apatinib 60 mg/kg/d): 931.50 ± 97.91 mm
Tumor volume (CT26 tumor cells; D-4, Table 2 (low-dose apatinib)): 1499.45 ± 303.10 mm^3
Tumor volume (CT26 tumor cells; D-4, upper part of Table 2, low-dose apatinib 60 mg/kg/d): 1489.82 ± 232.84 mm
Tumor volume (CT26 tumor cells; D-8, Table 2 (low-dose apatinib)): 2442.80 ± 882.95 mm^3
Tumor volume (CT26 tumor cells; D-8, upper part of Table 2, low-dose apatinib 60 mg/kg/d): 2275.35 ± 348.84 mm
Tumor inhibition rate (row head: Anti-bacterial rate) (CT26 tumor cells; high-dose apatinib 180 mg/kg/d): 21.68%
Tumor inhibition rate (row head: Anti-bacterial rate) (CT26 tumor cells; low-dose apatinib 60 mg/kg/d): 20.21%
Tumor inhibition rate (row head: Anti-bacterial rate) (CT26 tumor cells; [2]): 13.89%
Tumor weight (CT26 tumor cells; high-dose apatinib 180 mg/kg/d): 3.49 ± 0.86 g
Tumor weight (CT26 tumor cells; low-dose apatinib 60 mg/kg/d): 3.55 ± 0.61 g
Tumor weight (CT26 tumor cells; [2]): 3.84 ± 0.69 g
Cure rate (CT26 tumor cells; high-dose apatinib 180 mg/kg/d): 0%
Cure rate (CT26 tumor cells; low-dose apatinib 60 mg/kg/d): 0%
Cure rate (CT26 tumor cells; [2]): 0%
Net body weight ([1]; high-dose apatinib 180 mg/kg/d): 18.44 ± 1.42 g
Net body weight ([1]; low-dose apatinib 60 mg/kg/d): 18.32 ± 1.12 g
Net body weight [1, 2]: 18.02 ± 1.61 g
